According to US20250161238A1, “NMDAR Antagonists Prevent Ageing and Aging-Associated Conditions and Diseases Through Increasing 20S Proteasome Activity” (priority 2022, published 2025):

Key:
mice [1] = assay: Color change and condition of fur of aged mice; format: in vivo; settings: 22 months of age; 3 mg/Kg/per day with drinking water
Text: Ten mice, one year old, were supplied for the study. The mice were divided into two groups and one added memenatine to their drinking water, while the other group was designated as the control group. Mice were followed until they were 2 years old. Clinical frailty tests were investigated and compared in the two groups of mice at 22 months. The simplest and most easly determined findings of clinical signs of deterioration in aging mice are the evaluation of changes in mouse skin.
The experimental protocols were approved by the Ethics Committee of Ankara University, Faculty of Medicine, Medical Sciences Experimental Research and Application Center (Date: Dec. 11, 2019 and Decision number: 2019-22-189). Adult (12-mounts-old) C57BL/6 mice (5 for each group) were used. The mice were housed at the Experimental Animal Research Laboratory of Ankara University Faculty of Medicine. Food and water were given without restriction. The ambient temperature was kept at 21±2° C., and locomotor activity tests were performed at this temperature. The animals were housed in a room with a 12-hour light/dark cycle. The procedures in the study were performed in accordance with the Ankara University Animal Care Committee according to international guidelines. […] Tests related to locomotor activities of the mice were recorded and available.

[2] = tested on: human mesenchymal stem cells; assay: Differentiation markers of mesenchymal stem cells (western blot); format: cell-based; settings: day 14
Text: We investigated the differentiation of stem cells in the presence of memantine after cell passages using the simple differentiation method using the DMEM/F12, 10% FBS without coculture of mouse fibroblast (Yoo et all. 2020).
Cell were harvested at day 14 for western blot and the protein expression amounts of the differentiation markers cd44, cd73, and cd90 were investigated. […] Another indicator of the stem cell differentiation is the determination of the amounts of lipid droplet in the cell. Fourteen-day cell passage is caused to increase lipid in the cell. It was observed that memantine treatment has prevented the amount of lipid droplet (FIG. 36D).

C. elegans = C. elegans life span in liquid medium; format: in vivo; settings: for C. elegans survived compared to control: 20th day
Text: C. elegans is a free-living multicellular organism. Clear age-dependent human like physiological changes at the tissue, cellular, and molecular levels make C. elegans a valuable model for research in the field of aging and life span studies (Ambros, 2006). Accordingly, it was investigated how NMDAR blockers affact the life span of C. elegans. The use of drugs in the C. elegans related studies has been applied in different ways. The drugs were either applied to the LB medium with bacteria OP50, before spreading onto Nematode Growth Medium (NGM) plates (LB medium method), or to the NGM with live (NGM live method) or dead bacteria (NGM dead method), or spotting the drug solution to the surface of plates directly (spot dead method), or growing the worms in liquid medium (liquid growing method) (Ambros, 2006). Liquid growing method achieved the best absorption efficiency in worms. […] Therefore in this invention all the experiements related with the C. elegans were completed in liquid medium. In order to understand the effectiveness of the drug according to the onset time, the memantin was added to the medium on the 1st, 7th and 14th days in a 24-day period and the number of viable worms were determined on the 20nd day.
C. elegans strains used in this study were gift from Dr. Deniz Aksoy, Faculty of Sciency-Trakya University-Turkey. Preparation of liquid culture of C. elegans was prepared according to the Stiernagle, T. Maintenance of C. elegans (Feb. 11, 2006), WormBook, http://www.wormbook.org. Animals were grown on nematode growth medium (NGM) (50 mM NaCl, 2% agar, […], 5 mg/L cholesterol, 1.0 mM CaCl2), 1.0 mM MgSO4, 25 mM potassium phosphate, pH 6.0) seeded with Escherichia coli OP50 at 20° C. using standard methods.
For this purpose, the method described by Sulston, J. & Hodgkin, J. was followed. (See, Methods. in: Wood, W. B. (ed.) The Nematode Caenorhabditis elegans. (1988) Cold Spring Harbor Laboratory, Cold Spring Harbor: 587-606.; Solis, G. M., Petrascheck, M. Measuring Caenorhabditis elegans Life Span in 96 Well Microtiter Plates. 2011, J. Vis. Exp. (49)) Two-3 days old worms with eggs growing in NGM were transferred to 50 ml flask using S-medium. After centrifugation, worms were treated with 20% Alkaline Hypochlorite Solution and the eggs were transferred to the S-medium after washing with S-medium.
To sterilize the animals 300 μL of a 6 mM Fluorodeoxyuridine (FUDR) stock solution was added to 10 ml medium. During the monitoring of their life span, the worms were kept by shaking at a constant speed of 200 rpm. Locomotor activities of the worms were recorded and available.

lipid accumulation = assay: Nile red staining of lipid in mouse tissues; format: in vivo; settings: mice at 22 months
Text: In the next study, the effects of NMDAR blocker on lipid accumulation in liver, brain, muscle, lung, skin, pancreas, and kidney of mice with the presence of Memantine and control mice groups at 22 months were stained with Nile red and investigated.
Whole frozen tissues were sectioned with a microtome and fixed in 4% paraformaldehyde, Tissues were washed in PBS and the individual staining methods used in accordance with the manufacturer's recommendations. Total pixels from fluorescence in the images were quantified using Adobe Photoshop software CS2 (Adobe Systems), and normalized to a nuclear stain.

mice [3] = assay: Open Field Maze (OFM) tests in aged mice; format: in vivo
Text: Another test showing locomotor activity in mice is Open Field Maze (OFM). The OFM is one of the most widely used platforms which allow the researcher to measure behaviors ranging from overall locomotor activity to anxiety-related emotional behaviors. The first and most important specific parameter to measure in the OFM is total ambulatory distance.
The experimental protocols were approved by the Ethics Committee of Ankara University, Faculty of Medicine, Medical Sciences Experimental Research and Application Center (Date: Dec. 11, 2019 and Decision number: 2019-22-189). Adult (12-mounts-old) C57BL/6 mice (5 for each group) were used. The mice were housed at the Experimental Animal Research Laboratory of Ankara University Faculty of Medicine. Food and water were given without restriction. The ambient temperature was kept at 21±2° C., and locomotor activity tests were performed at this temperature. The animals were housed in a room with a 12-hour light/dark cycle. The procedures in the study were performed in accordance with the Ankara University Animal Care Committee according to international guidelines. Memantine (Sigma-Aldrich) was administered orally at 3 mg/Kg/per day with drinking water of one-year-old mice. Tests related to locomotor activities of the mice were recorded and available.
Open Field Test described firstly Hall for “emotionality” (Hall, 1934). Open Field test is used for anxiety-like behavior (ALB) and locomotor activity. We conducted the test in a hypethral box, which was made of 62×68 cm blueboard. The base of the box was divided into 20 equal rectangles. Animals had placed in the central region of Open Field Test. The first 5 min of the record was used for the analysis of behavioral parameters such as total distance traveled (horizontal locomotor activity), total rearing number (vertical locomotor activity), central zone time (ALB), Central zone Latency (the time of first return to the central region: ALB), central zone entrance (ALB), unsupported rearing (vertical locomotor activity without touch test wall and exploratory behavior, sensitive for ALB), central escape latency (first escape time from central zone: ALB) (Çalιşkan et al, 2019, Çalιşkan et al, 2020).

p21-GFP fusion protein = p21-GFP fusion protein amount in cells; format: cell-based, human; settings: Hep3B expressing p21-GFP

| SMILES | color change and condition of mouse fur (mice [1]) | increase in cd44 protein expression [2] | increase in cd73 protein expression [2] | increase in cd90 protein expression [2] | C. elegans survived compared to control (C. elegans; memantin started on day 7 or day 1) | C. elegans survived compared to control (C. elegans; memantin started on the 14th day) | worms survived compared to no-treatment (C. elegans; day 21) | life span of C. elegans (C. elegans; log-rank (Kaplan-Meier)) | amount of lipid in liver, brain, muscle, lung, and skin (lipid accumulation) | amount of lipid in pancreas and kidney (lipid accumulation) | Central zone time (mice [3]; 5-minute movements) | Central latency time (mice [3]; P 0.07) | Central zone entrance (mice [3]; P 0.08) | Central escape latency (mice [3]; P 0.4) | total ambulatory distance (mice [3]; five minute recordings) | Peripheral zone time (mice [3]; mouse, in vivo) | total rearing activity (mice [3]; mouse, in vivo) | p21-GFP fusion protein / GFP amount (p21-GFP fusion protein) |
| --- | --- | --- | --- | --- | --- | --- | --- | --- | --- | --- | --- | --- | --- | --- | --- | --- | --- | --- |
| CC12CC3CC(C)(C1)CC(N)(C3)C2 [memantine, 3,5-dimethyladamantan-1-amine] | very different in favor of those who received memantine | statistically significantly less | statistically significantly less | statistically significantly less | ~3 times | 67% | 4 times | increase | less than that of the control group | No clear difference | 4 times | differed at least twice | differed at least twice | differed at least twice | nearly two times more | mice not receiving memantine remained in the peripheral regions more | twice as much rearing activity | – |
| CNC1(c2ccccc2Cl)CCCCC1=O (stereo not drawn) [ketamin, 2-(2-chlorophenyl)-2-(methylamino)-cyclohexanone] | – | – | – | – | – | – | – | – | – | – | – | – | – | – | – | – | – | decrease |
